Experimental data published in PMC5031999, “Structure and catalytic mechanism of monodehydroascorbate reductase, MDHAR, from Oryza sativa L. japonica” (Scientific Reports, 2016).

What was measured:
Assay type in all cases: binding
OsMDHAR [1] = biological target: T1, OsMDHAR (Oryza sativa, UniProt Q652L6); test: isothermal titration calorimetry; details: text names both NADH and NAD for the titrated ligand
T1 construct: gene MDAR3; amplified from rice cDNA; monomer by size exclusion

OsMDHAR [2] = biological target: T2, OsMDHAR (Oryza sativa, UniProt Q652L6, E196A); test: isothermal titration calorimetry; details: text names both NADH and NAD for the titrated ligand
T2 construct: gene MDAR3; amplified from rice cDNA; monomer by size exclusion

OsMDHAR [3] = biological target: T3, OsMDHAR (Oryza sativa, UniProt Q652L6, Y349F); test: X-ray crystal structure, […] Å; details: crystal soaked with 10 mM NADH, then ISD; quaternary complex with FAD and ISD
T3 construct: gene MDAR3; amplified from rice cDNA; monomer by size exclusion

OsMDHAR [4] = biological target: T2, OsMDHAR; test: X-ray crystal structure, […] Å; details: crystal soaked with 50 mM NADPH until colourless; FAD bound
OsMDHAR [5] = biological target: T1, OsMDHAR; test: X-ray crystal structure, […] Å; details: co-purified FAD, one per monomer; NAD-free crystal

T2 sequence (Q652L6 whole entry E196A): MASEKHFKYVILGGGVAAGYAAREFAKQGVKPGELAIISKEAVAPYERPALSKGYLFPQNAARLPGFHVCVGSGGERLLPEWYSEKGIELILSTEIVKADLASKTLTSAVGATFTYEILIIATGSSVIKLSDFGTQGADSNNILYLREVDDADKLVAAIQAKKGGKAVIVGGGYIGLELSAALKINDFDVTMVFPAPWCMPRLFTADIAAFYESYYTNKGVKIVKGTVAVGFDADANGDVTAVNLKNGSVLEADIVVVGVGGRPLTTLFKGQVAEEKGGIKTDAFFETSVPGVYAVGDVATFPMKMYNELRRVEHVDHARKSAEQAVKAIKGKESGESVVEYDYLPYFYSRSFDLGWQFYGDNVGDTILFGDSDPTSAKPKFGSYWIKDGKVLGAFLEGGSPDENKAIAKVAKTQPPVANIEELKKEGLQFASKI
T1 sequence (Q652L6 whole entry): as the sequence (Q652L6 whole entry E196A) above, with A196E counted along it
T3 sequence (Q652L6 whole entry Y349F): as the sequence (Q652L6 whole entry E196A) above, with A196E, Y349F counted along it

Structure (SMILES): NC(=O)C1=CN([C@@H]2O[C@H](COP(=O)(O)OP(=O)(O)OC[C@H]3O[C@@H](n4cnc5c(N)ncnc54)[C@H](O)[C@@H]3O)[C@@H](O)[C@H]2O)C=CC1 [NADH]
- binding affinity (OsMDHAR [1]): we measured the binding affinity of wild type (WT) and E196A for NADH and NADPH
- binding affinity (OsMDHAR [2]): there is no difference between WT and E196A in NAD binding affinity

Structure (SMILES): NC(=O)c1ccc[n+]([C@@H]2O[C@H](COP(=O)(O)OP(=O)(O)OC[C@H]3O[C@@H](n4cnc5c(N)ncnc54)[C@H](O)[C@@H]3O)[C@@H](O)[C@H]2O)c1 [NAD]
- X-ray crystal structure, 1.9 Å (OsMDHAR [3]): We also determined quaternary complex structures with FAD, NAD, and AsA or ISD

Structure (SMILES): NC(=O)c1ccc[n+]([C@@H]2O[C@H](COP(=O)(O)OP(=O)(O)OC[C@H]3O[C@@H](n4cnc5c(N)ncnc54)[C@H](OP(=O)(O)O)[C@@H]3O)[C@@H](O)[C@H]2O)c1 [NADP]
- X-ray crystal structure, 1.8 Å (OsMDHAR [4]): the structure of the E196A mutant-NADP complex revealed

Structure (SMILES): Cc1cc2nc3c(=O)[nH]c(=O)nc-3n(C[C@H](O)[C@H](O)[C@H](O)COP(=O)(O)OP(=O)(O)OC[C@H]3O[C@@H](n4cnc5c(N)ncnc54)[C@H](O)[C@@H]3O)c2cc1C [FAD]
- X-ray crystal structure, 1.7 Å (OsMDHAR [5]): All four structures contain one molecule of FAD per monomer
